Assays:
[1] = (§1) Cytotoxicity against human MRC5 cells assessed as inhibition of cell growth incubated for 72 hrs by MTT assay; type: toxicity, cell-based; settings: human, MRC5 cells
Raji [2] = assay: Antiproliferative activity against human Raji cells assessed as inhibition of cell growth incubated for 72 hrs by MTT assay; type: functional, cell-based
MDA-MB-231 = assay: Antiproliferative activity against estrogen receptor negative human MDA-MB-231 cells assessed as inhibition of cell growth incubated for 72 hrs by MTT assay; type: functional, cell-based; settings: MDA-MB-231, 72 h
A549 [3] = assay: Antiproliferative activity against human A549 cells assessed as inhibition of cell growth incubated for 72 hrs by MTT assay; type: functional, cell-based; settings: A549, 72 h
MCF7 [4] = assay: Antiproliferative activity against estrogen receptor positive human MCF7 cells assessed as inhibition of cell growth incubated for 72 hrs by MTT assay; type: functional, cell-based; settings: MCF7, 72 h
K562 [5] = assay: Antiproliferative activity against human K562 cells assessed as inhibition of cell growth incubated for 72 hrs by MTT assay; type: functional, cell-based; settings: K562, 72 h
HL-60 = assay: Antiproliferative activity against human HL-60 cells assessed as inhibition of cell growth incubated for 72 hrs by MTT assay; type: functional, cell-based; settings: HL-60, 72 h
Jurkat = assay: Antiproliferative activity against human Jurkat cells assessed as inhibition of cell growth incubated for 72 hrs by MTT assay; type: functional, cell-based
HeLa [6] = assay: Antiproliferative activity against human HeLa cells assessed as inhibition of cell growth incubated for 72 hrs by MTT assay; type: functional, cell-based
Raji [7] = assay: Potency index, ratio of cleistenolide IC50 to test compound IC50 for antiproliferative activity against human Raji cells assessed as inhibition of cell growth incubated for 72 hrs by MTT assay; type: functional
K562 [8] = assay: Potency index, ratio of cleistenolide IC50 to test compound IC50 for antiproliferative activity against human K562 cells assessed as inhibition of cell growth incubated for 72 hrs by MTT assay; type: functional
HeLa [9] = assay: Potency index, ratio of cleistenolide IC50 to test compound IC50 for antiproliferative activity against human HeLa cells assessed as inhibition of cell growth incubated for 72 hrs by MTT assay; type: functional
A549 [10] = assay: Potency index, ratio of cleistenolide IC50 to test compound IC50 for antiproliferative activity against human A549 cells assessed as inhibition of cell growth incubated for 72 hrs by MTT assay; type: functional
A549 [11] = assay: Potency index, ratio of doxorubicin IC50 to test compound IC50 for antiproliferative activity against human A549 cells assessed as inhibition of cell growth incubated for 72 hrs by MTT assay; type: functional
MRC5 = assay: as §1; type: toxicity, cell-based; settings: mrc5
MCF7 [12] = assay: Potency index, ratio of cleistenolide IC50 to test compound IC50 for antiproliferative activity against human MCF7 cells assessed as inhibition of cell growth incubated for 72 hrs by MTT assay; type: functional

Row | SMILES | IC50 (Raji [2]) [µM] | IC50 (MDA-MB-231) [µM] | IC50 (A549 [3]) [µM] | IC50 (MCF7 [4]) [µM] | IC50 (K562 [5]) [µM] | IC50 (HL-60) [µM] | IC50 (Jurkat) [µM] | IC50 (HeLa [6]) [µM] | IC50 at 72 h [1] [µM] | Ratio IC50 (Raji [7]) | Ratio IC50 (K562 [8]) | Ratio IC50 (HeLa [9]) | Ratio IC50 (A549 [10]) | Ratio IC50 (A549 [11]) | IC50 (MRC5) [µM] | Ratio IC50 (MCF7 [12])
1 | CC(=O)O[C@@H]1C=CC(=O)O[C@@H]1[C@@H](COC(=O)c1ccccc1)OC(C)=O |  |  |  |  |  |  |  |  | > 100 |  |  |  |  |  |  | 
2 | CC(=O)O[C@H](COC(=O)c1ccccc1)[C@H]1OC(=O)C=C[C@H]1O[Si](C)(C)C(C)(C)C | 18.8 | 35.4 | 12.1 | 4.14 | 6.72 | 11.6 | 16.7 | 9.96 | > 100 |  |  |  |  |  |  | 
3 | CC(=O)O[C@H](COC(=O)c1ccccc1)[C@H]1OC(=O)C=C[C@H]1O[Si](c1ccccc1)(c1ccccc1)C(C)(C)C | 25.1 | 8.36 | 30.6 | 9.39 | 5.85 | 5.64 | 19.7 | 3.35 | > 100 |  |  | >2 |  |  |  | 
4 | COc1ccc(/C=C/C(=O)O[C@@H]2C=CC(=O)O[C@@H]2[C@@H](COC(=O)c2ccccc2)OC(C)=O)cc1 | 25.7 | 26.6 | 41.6 | 12.8 | 1.28 | 15.3 | 24.1 | 15.6 | > 100 |  | 5 |  |  |  |  | 
5 | COc1ccc(/C=C/C(=O)O[C@@H]2C=CC(=O)O[C@@H]2[C@@H](COC(=O)c2ccccc2)OC(C)=O)cc1OC | 26.4 | 15.9 | 13.6 | 6.35 | 4.52 | 5.75 | 22.6 | 8.73 | > 100 |  |  |  |  |  |  | 
6 | CC(=O)O[C@H](COC(=O)c1ccccc1)[C@H]1OC(=O)C=C[C@H]1OC(=O)/C=C/c1ccc([N+](=O)[O-])cc1 | 25 | 15.5 | 2.55 | 21.3 | 5.82 | 24.5 | 23.5 | 13.3 | > 100 |  |  |  | >6 | ~2 |  | 
7 | COc1cccc(C(=O)O[C@@H]2C=CC(=O)O[C@@H]2[C@@H](COC(=O)c2ccccc2)OC(C)=O)c1 | 25.2 | 25.6 | 12.1 | 8.79 | 1.59 | 1.7 | 25.3 | 9.43 | > 100 |  | 5 |  |  |  |  | 
8 | O=C1C=C[C@@H](OCc2ccccc2)[C@@H]([C@@H](COC(=O)c2ccccc2)OCc2ccccc2)O1 | 19.2 | 19.2 | 12.9 | 5.9 | 0.67 | 3.34 | 12 | 8.3 | > 100 |  | >10 |  |  |  |  | 
9 | CC(=O)O[C@H](COC(=O)c1ccccc1)[C@H]1OC(=O)C=C[C@H]1OS(C)(=O)=O | 17 | 14.9 | 11.3 | 3.26 | 8.78 | 3.63 | 15.2 | 14.2 |  |  |  |  |  |  | > 100 | ~8
10 | CC1(C)O[C@H]2O[C@@H]3C=CC(=O)O[C@@H]3[C@H]2O1 | 29.4 | 24.4 | 16.5 | 8.26 | 3.4 | 22.3 | 27.2 | 6.09 | > 100 |  |  |  |  |  |  | 
11 | CC(=O)O[C@H](COC(=O)c1ccccc1)[C@H]1OC(=O)C=C[C@H]1OC(=O)/C=C/c1ccc(F)cc1 | 26.4 | 17.7 | 87.6 | 5.28 | 6.75 | 16.1 | 28.6 | 17.9 | > 100 |  |  |  |  |  |  | 
12 | CC(=O)OC[C@@H](O)[C@H]1OC(=O)C=C[C@H]1O | 19.8 | 45.6 | 12.5 | 4.58 | 1.18 | 9.62 | 17.5 | 5.36 | > 100 |  | 5 |  |  |  |  | 
13 | CC(=O)O[C@H](COC(=O)c1ccccc1)[C@H]1OC(=O)C=C[C@H]1OC(=O)c1c(Cl)cc(Cl)cc1Cl | 23.6 | 23.4 | 5.02 | 28.4 | 11.9 | 22.9 | 9.4 | 8.71 | > 100 |  |  |  |  |  |  | 
14 | CC(=O)O[C@H](COC(=O)c1ccccc1)[C@H]1OC(=O)C=C[C@H]1OS(=O)(=O)c1ccc(C)cc1 | 18.9 | 14.8 | 12.4 | 11.3 | 4.5 | 20.9 | 26.6 | 15.8 | > 100 |  |  |  |  |  |  | 

Continued by falling IC50 (Raji [2]), values first:

Row | IC50 (Raji [2]) [µM] | IC50 (MDA-MB-231) [µM] | IC50 (A549 [3]) [µM] | IC50 (MCF7 [4]) [µM] | IC50 (K562 [5]) [µM] | IC50 (HL-60) [µM] | IC50 (Jurkat) [µM] | IC50 (HeLa [6]) [µM] | SMILES | IC50 at 72 h [1] [µM] | Ratio IC50 (Raji [7]) | Ratio IC50 (K562 [8]) | Ratio IC50 (HeLa [9]) | Ratio IC50 (A549 [10]) | Ratio IC50 (A549 [11]) | IC50 (MRC5) [µM] | Ratio IC50 (MCF7 [12])
15 | 14 | 17.6 | 11 | 2.83 | 6.32 | 4.64 | 14.5 | 9.75 | CC(=O)O[C@H](COC(=O)c1ccccc1)[C@H]1OC(=O)C=C[C@H]1OC(=O)C(c1ccccc1)c1ccccc1 | > 100 |  |  |  |  |  |  | >9
16 | 13.1 | 23.7 | 16.2 | 15.1 | 5.58 | 9.84 | 15.5 | 6.79 | CC(=O)O[C@@H](COC(=O)c1ccccc1)[C@H]1OC(=O)C=C[C@H]1OC(C)=O | 98.2 |  |  |  |  |  |  | 
17 | 11.7 | 16.1 | 23.2 | 15.5 | 1.12 | 1.39 | 19 | 6.17 | CC(=O)OC[C@@H](OC(C)=O)[C@H]1OC(=O)C=C[C@H]1OCc1ccccc1 | > 100 |  | 5 |  |  |  |  | 
18 | 11.3 | 14.1 | 19.9 | 10.5 | 1.23 | 12.3 | 15.3 | 4.69 | O=C1C=C[C@@H](O)[C@@H]([C@@H](O)COC(=O)c2ccccc2)O1 | > 100 |  | 5 |  |  |  |  | 
19 | 10.7 | 15.9 | 22.9 | 5.01 | 2.65 | 4.39 | 18.3 | 10.8 | CC(=O)OC[C@@H](OC(C)=O)[C@H]1OC(=O)C=C[C@H]1OC(=O)c1ccccc1 | > 100 |  |  |  |  |  |  | 
20 | 3.3 | 4.29 | 8.55 | 22.5 | 0.76 | 6.36 | 11.8 | 7 | CC(=O)O[C@H](COC(=O)c1ccccc1)[C@H]1OC(=O)C=C[C@H]1OC(=O)/C=C/c1ccccc1 | > 100 | >10 | >10 |  |  |  |  | 

Reference: ChEMBL document CHEMBL5614384, “Synthesis and antiproliferative activity of (-)-cleistenolide, (6S)-cleistenolide and 4-substituted cleistenolide analogues” (Bioorg Med Chem, 2024)
